Source: patent US10575515B2, “Methods and compositions for preserving tissues and organs” (The General Hospital Corporation, priority 2010, dated 2020)
One block for each compound: values may come before it.

Key:
hepatocytes [1] = experiment: SZNF storage of cells at −4° C. with metabolic supplement, cell viability; assay type: cell-based; settings: tandem SZNF with metabolic suppressant
Experimental: Inventors are testing a variety of metabolic supplements to enhance viability during preservation. One of the most successful additives inventors tested is magnolol, a biphenolic compound with multiple properties (including tumor suppression and antioxidative capabilities). […] Note that this study was performed early on where stable preservation temperature in plate culture models was −4° C., testing at −10° C. is currently in progress.
The cells were preserved on collagen coated 6 well plates and cultured at 37° C. for one day prior to preservation. Cells were then preserved 48 hours at −4° C.; viability was determined 1 hr after rewarming

hepatocytes [2] = experiment: Hepatocyte viability after 60 min incubation with isotonic mixtures of sugars and DMSO; assay type: cell-based
Experimental: Significant loading of 3OMG can be achieved within 20 minutes (FIG. 37a). The hepatocyte viability when incubated with 3OMG is statistically equal to other saccharides that are not cryopreservative for mammalian cells (FIG. 37b). By comparison, incubation with a common cryopreservative dimethyl sulfoxide (DMSO) under similar conditions reduces viability to 12%.
Hepatocytes can be loaded with 3OMG within 20 minutes in vitro. FIG. 37A illustrates that the kinetics of 3OMG uptake show significant loading of cells with 3OMG within 20 minutes, and even more rapid release with washing; inventors can currently perfuse the livers in stable condition for more than 6 hrs, which is more than sufficient for loading with 3OMG.

hepatocytes [3] = experiment: Long-term hepatic functions of cryopreserved hepatocytes in collagen sandwich culture; assay type: cell-based; settings: albumin, urea, cytochrome P450; 3OMG loaded and frozen
Experimental: Methods: Cells were cultured in a collagen sandwich for […], and media collected daily were analyzed for albumin and urea. All values were normalized by viable cell number (DNA content) and shown as o the means±se (n>9). Urea secretion and resorufin formation were statistically not different (p=0.51 and p=0.3 respectively). Albumin production on days 7-13 were statistically different at p=0.014 (FIG. 39).

[4] = Supercooling in cryovials at subzero temperatures in selected media formulations; assay type: physicochemical
Experimental: We tested a variety of preservation media and additives for achieving SZNF storage overnight in a controlled rate freezer. We were able to reach −10° C. without any freezing in supplemented University of Wisconsin (UW) and Hypothermosol (HTS) by proper tuning of the rate of temperature reduction. […] FIG. 48 depicts the temperature profile for successful subzero cooling at −10° C.

rat livers = experiment: Subzero nonfreezing storage of whole rat livers at −5° C., histology (H&E); settings: loaded with 3OMG, 24 hours at −5° C., then NELP with red blood cells
hepatocytes [5] = experiment: Cryopreservation of 3OMG-loaded hepatocytes, post-thaw viability by trypan blue exclusion; assay type: cell-based; settings: Hepatocyte; 200 mM 3OMG, storage in liquid nitrogen up to one week; read-out: post-thaw cell viability (percentage of unfrozen control)
Experimental: Hepatocytes were incubated with 200 mM 3OMG for 60 min and then washed with sugar-free medium for 30 min. Controls were incubated in glucose-free DMEM (no-sugar control), sucrose (non-permeable/non-intracellular control), and D-glucose (permeable but metabolizable control). Following incubation, cells were pelleted by centrifugation for 5 min, supernatant decanted, and resuspended in cold HypoThermosol solution (HTS) with 200 mM 3OMG, 2DG, sucrose, or D-glucose (1×10^6 cell/mL). Cell suspensions were transferred to 1 mL cryogenic vials and cooled at −1° C./min to −6° C., seeded to induce the formation of extracellular ice by application of cold forceps to the exterior of the cryovials, and then cooled at −1° C./min to −80° C., and finally transferred to liquid nitrogen (−196° C.) for storage lasting 1 to 7 days. Following storage, samples were rapidly thawed in a 37° C. water bath for 2 min with gentle agitation. The samples were then diluted 1:10 in D-glucose-free DMEM and incubated for 10 min at 37° C. to wash out the loaded sugar compounds. Samples were then centrifuged, supernatant decanted, and resuspended in culture medium. The viability of the cryopreserved cells was determined immediately after thawing using a trypan blue exclusion assay and expressed as percent of unfrozen control. […]

[6] = tested on: C3A cells (human liver carcinoma line); experiment: Cryopreservation of C3A cells with troglitazone, post-thaw viability by trypan blue exclusion; assay type: cell-based; settings: 25 μM troglitazone 30 mins, cryopreservation in liquid nitrogen, vs without
From the text: Inventors performed a molecular docking study to identify ligands of PPAR-γ, a transcription factor that is known to have the ability to modulate metabolic rate (see FIG. 34), where inventors identified Troglitazone as a candidate. Inventors also performed preliminary studies to test the effect of supplementation in preservation efficacy. In these initial studies inventors used C3A cells (human liver carcinoma line) and cryopreservation rather than supercooling, due to availability of data to be used as controls. Inventors observed that Troglitazone increased post-thaw viability ˜2.5 fold. We are currently testing Troglitazone and other compounds with primary rat hepatocytes both in cryopreservation and supercooled storage. Nearly confluent C3A cell flasks were trypsinized in PBS solution; cells were sedimented by centrifugation (10 min at […] at 4 degree C.). The medium was replaced by adding 2 mL of HTS and the cell pallets were re-suspended in the HTS by gentle pipetting. The cell samples in 1 mL aliquots were put in 1.5 mL cryovials. The samples were frozen in a controlled rate freezer using a freeze controlled Cryobath (Cryologic, Victoria, Australia) with a CL-8800 temperature controller (Cryologic). A cooling rate of 1 degree C./min was used. The samples were seeded with ice at −4 degrees C. by using a cotton bulb dipped in liquid nitrogen. […]

Compound: C=CCc1ccc(O)c(-c2cc(CC=C)ccc2O)c1 [magnolol, 5,5′-Diallyl-2,2′-biphenyldiol]
- preservation of viability of cells compared to SZNF in the absence of metabolic suppressant agent (hepatocytes [1]): at least 60%

Compound: C[S+](C)[O-] [dimethyl sulfoxide (DMSO), dimethyl sulfoxide, reference compound]
- hepatocyte viability after incubation (hepatocytes [2]; incubation 60 min, isotonic mixture): 12%

- long-term hepatic functions vs non-frozen hepatocytes (hepatocytes [3]): similar
- temperature reached without any freezing ([4]; overnight, controlled rate freezer): −15 °C
- fraction of the time the protocol is stable ([4]; −15° C. in HTS): about 50%
Compound: CO[C@@H]([C@H](O)[C@H](O)CO)[C@@H](O)C=O [3OMG, 3-O-methyl-glucose]
- toxicity for hepatocytes (hepatocytes [2]; concentration range studied, 60 min incubation): minimally toxic
- histology after storage and NELP perfusion (rat livers): perfect preservation of microstructure
- viability at 200000 µM (hepatocytes [5]): > 50%

Compound: Cc1c(C)c2c(c(C)c1O)CCC(C)(COc1ccc(CC3SC(=O)NC3=O)cc1)O2 (stereo not drawn) [Troglitazone]
- increase of post-thaw viability [6]: ~2.5 fold
